The target of one assay is T1, MAPKAPK5 (Homo sapiens, UniProt Q8IW41).
T1 construct: 1 mU MAPKAP-K5
T1 sequence (Q8IW41 1-473): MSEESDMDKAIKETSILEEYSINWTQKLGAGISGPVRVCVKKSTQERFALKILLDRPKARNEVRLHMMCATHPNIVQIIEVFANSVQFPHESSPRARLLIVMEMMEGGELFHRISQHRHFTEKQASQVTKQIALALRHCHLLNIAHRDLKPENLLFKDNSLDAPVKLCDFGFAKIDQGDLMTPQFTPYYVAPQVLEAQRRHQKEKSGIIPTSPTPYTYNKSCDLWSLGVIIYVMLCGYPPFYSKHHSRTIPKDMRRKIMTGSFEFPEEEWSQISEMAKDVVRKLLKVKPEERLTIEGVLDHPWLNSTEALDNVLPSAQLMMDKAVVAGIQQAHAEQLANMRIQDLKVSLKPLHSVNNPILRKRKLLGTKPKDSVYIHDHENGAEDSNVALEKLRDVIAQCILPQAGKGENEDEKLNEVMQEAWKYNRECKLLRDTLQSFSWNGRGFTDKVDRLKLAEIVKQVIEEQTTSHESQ
In words: MAPKAP-K5 assay (FlashPlate, 33P-ATP). The following applies: 0.6 μM ATP, 30 minutes at room temperature. It is filed as biochemical. Here is the method:
3 μM MAPKAP-K5 peptide substrate

A further assay has as its system MMP1 expression by SFs. The experiment in a line: 'MMP assay': MMP1 expression by 'complex trigger' activated synovial fibroblasts (MMP1 ELISA). Format: cell-based, human. The following applies: Homo sapiens, Fibroblast, RASFs, 48 hrs. In general terms: An ELISA detects its analyte on a solid surface through an enzyme-linked reagent.

With `CC(C)(C)OC(=O)c1ccc(Nc2ncc(-c3cn[nH]c3)n3ccnc23)cc1` [Compound 22], the IC50 – broadly, the concentration that gives 50% inhibition – at MAPKAPK5 is above 1000 nM. Besides, in the assay with MMP1 expression by SFs, the 50% effective concentration (EC50) – broadly, the midpoint of the concentration-response curve – was above 1000 nM.

On to `NC(=O)c1ccc(-c2cnc(Nc3ccc(C(=O)NCc4cccnc4)cc3)c3nccn23)cc1` [Compound 104], for which the 50% inhibitory concentration (IC50) against MAPKAPK5 was above 1000 nM. Also, the EC50 with MMP1 expression by SFs is above 1000 nM.

Consider `CCN(CC)CCNC(=O)c1ccc(Nc2ncc(-c3cn[nH]c3)n3ccnc23)cn1` [Compound 103, 5-[5-(1H-Pyrazol-4-yl)-imidazo[1,2-a]pyrazin-8-ylamino]-pyridine-2-carboxylic acid (2-diethylamino-ethyl)-amide], for which, on MAPKAPK5, the IC50 lay within 501 to 1000 nM. The EC50 with MMP1 expression by SFs is above 1000 nM.

Turning to `O=c1cc(-c2cnc(Nc3ccc(N4CCOCC4)cc3)c3nccn23)cc(C(F)(F)F)[nH]1` [Compound 161, 6-Trifluoromethyl-4-[8-(4-morpholin-4-ylphenylamino)imidazo[1,2-a]pyrazin-5-yl]-1H-pyridin-2-one], the concentration for half-maximal inhibition (IC50) against MAPKAPK5 is above 1000 nM. The EC50 in the assay on MMP1 expression by SFs was above 1000 nM.

The compound `CC(C)N1CCN(c2ncc(Nc3ncc(-c4ccc5c(c4)CNC5=O)n4ccnc34)cn2)CC1` [Compound 219] returned an IC50 against MAPKAPK5 of 101 to 500 nM. The EC50 with MMP1 expression by SFs lay within 501 to 1000 nM.

In turn, `CCN(CC)CCNC(=O)c1ccc(Nc2ncc(-c3cnc(O)nc3O)n3ccnc23)cc1` [Compound 80] came in with a 50% inhibitory concentration (IC50) against MAPKAPK5 above 1000 nM. Besides, the concentration giving a half-maximal response (EC50) in the assay with MMP1 expression by SFs is above 1000 nM.

Regarding `Cc1cc(-c2cnc(Nc3ccc(N4CCOCC4)cc3)c3nccn23)ccc1C(N)=O` [Compound 185], the concentration for half-maximal inhibition (IC50) at MAPKAPK5 is above 1000 nM. Moreover, the EC50 with MMP1 expression by SFs was 501 to 1000 nM.

Take `CCN(CC)CCNC(=O)c1ccc(Nc2ncc(-c3ccc(O)c(OC)c3)n3ccnc23)cc1` [Compound 65]: on MAPKAPK5, the 50% inhibitory concentration (IC50) was above 1000 nM. In the assay on MMP1 expression by SFs, the half-maximal effective concentration (EC50) was above 1000 nM.

For `CCN(CC)CCNC(=O)c1ccc(Nc2ncc(-c3ccsc3)n3ccnc23)cc1` [Compound 73], the IC50 against MAPKAPK5 was above 1000 nM. Besides, in the assay with MMP1 expression by SFs, the EC50 was above 1000 nM.

In turn, `CCN(CCO)c1ccc(Nc2ncc(-c3ccc(C(N)=O)cc3)n3ccnc23)cc1` [Compound 4] registered a 50% inhibitory concentration (IC50) on MAPKAPK5 above 1000 nM. Also, in the assay with MMP1 expression by SFs, the EC50 lay within 101 to 500 nM.

Consider `CN1CCN(c2ccc(Nc3ncc(-c4ccc(C(=O)NC5CC5)cc4)n4ccnc34)cc2)CC1` [Compound 117], for which, at MAPKAPK5, the half-maximal inhibitory concentration (IC50) is above 1000 nM. For the same compound, the 50% effective concentration (EC50) in the assay on MMP1 expression by SFs was above 1000 nM.

`O=C(O)c1ccc(-c2cnc(Nc3ccc(C(=O)NCc4cccnc4)cc3)c3nccn23)cc1` [Compound 44] gave a half-maximal inhibitory concentration (IC50) against MAPKAPK5 above 1000 nM. Further, the EC50 in the assay with MMP1 expression by SFs is above 1000 nM.

`CCN(CCO)c1ccc(Nc2ncc(-c3ccc(O)cc3)n3ccnc23)cc1` [Compound 5]: the IC50 against MAPKAPK5 is above 1000 nM. Further, the EC50 with MMP1 expression by SFs lay within 101 to 500 nM.

On MAPKAPK5, `Nc1cc(C(=O)O)ccc1-c1cnc(Nc2ccc(N3CCOCC3)cc2)c2nccn12` [Compound 40] returned a half-maximal inhibitory concentration (IC50) above 1000 nM. Moreover, the EC50 with MMP1 expression by SFs was above 1000 nM.

`NC(=O)c1ccc(-c2cnc(Nc3ccc(-n4cncn4)cc3)c3nccn23)cc1` [Compound 134] had an IC50 on MAPKAPK5 above 1000 nM. The EC50 in the assay on MMP1 expression by SFs fell in the range of 101 to 500 nM.

For the compound `FC(F)(F)CN1CCC(c2ccc(Nc3ncc(-c4cn[nH]c4)n4ccnc34)cc2)CC1` [Compound 196], the IC50 at MAPKAPK5 was above 1000 nM. Moreover, the 50% effective concentration (EC50) in the assay with MMP1 expression by SFs is above 1000 nM.

`CN1CCN(c2ccc(Nc3ncc(-c4cncc(C(N)=O)c4)n4ccnc34)cc2)CC1` [Compound 121, 5-{8-[4-(4-Methyl-piperazin-1-yl)-phenylamino]-imidazo[1,2-a]pyrazin-5-yl}-nicotinamide] came in with an IC50 against MAPKAPK5 above 1000 nM. Further, the EC50 with MMP1 expression by SFs is above 1000 nM.

The compound `CC(C)N1CCN(c2ccc(Nc3ncc(-c4cc5c(o4)CNC5=O)n4ccnc34)cc2)CC1` [Compound 222] came in with an IC50 at MAPKAPK5 of 101 to 500 nM. Moreover, the EC50 in the assay on MMP1 expression by SFs was in the range of 501 to 1000 nM.

Take `CC(C)N1CCN(c2ccc(Nc3ncc(-c4cn[nH]c4)n4ccnc34)cn2)CC1` [Compound 201, [6-(4-Isopropylpiperazin-1-yl)pyridin-3-yl]-[5-(1H-pyrazol-4-yl)-imidazo[1,2-a]pyrazin-8-yl]amine]: at MAPKAPK5, the IC50 is 501 to 1000 nM. Besides, the EC50 in the assay on MMP1 expression by SFs was above 1000 nM.

Regarding `CN1CCN(C(=O)c2ccc(Nc3ncc(-c4cn[nH]c4)n4ccnc34)cc2)CC1` [Compound 57], the concentration for half-maximal inhibition (IC50) against MAPKAPK5 lay within 101 to 500 nM. The EC50 with MMP1 expression by SFs is above 1000 nM.

On MAPKAPK5, `CS(=O)(=O)Nc1ccc(Nc2ncc(-c3cn[nH]c3)n3ccnc23)cc1` [Compound 30] yielded an IC50 of 501 to 1000 nM. In addition, the EC50 with MMP1 expression by SFs was above 1000 nM.

As to `Cc1nc(-c2cnc(Nc3ccc(N4CCOCC4)cc3)c3nccn23)n[nH]1` [Compound 100], at MAPKAPK5, the IC50 was above 1000 nM. The 50% effective concentration (EC50) with MMP1 expression by SFs is above 1000 nM.

With `CCN(CC)CCNC(=O)c1ccc(Nc2ncc(-c3cn[nH]c3)n3ccnc23)cc1OC` [Compound 48], the IC50 against MAPKAPK5 is above 1000 nM. Besides, the EC50 with MMP1 expression by SFs was above 1000 nM.

On to `NC(=O)c1ccc(-c2cnc(Nc3ccc(N)cc3)c3nccn23)cc1` [Compound 18], for which, at MAPKAPK5, the concentration for half-maximal inhibition (IC50) is above 1000 nM. Moreover, in the assay on MMP1 expression by SFs, the EC50 is above 1000 nM.

For `NC(=O)c1ccc(-c2cnc(Nc3ccc(OCc4cccnc4)cc3)c3nccn23)cc1F` [Compound 147], the IC50 against MAPKAPK5 is above 1000 nM. Besides, the half-maximal effective concentration (EC50) with MMP1 expression by SFs lay in the range of 101 to 500 nM.

The compound `Cc1cc(-c2cnc(Nc3ccc(N4CCOCC4)cc3)c3nccn23)cc(=O)[nH]1` [Compound 174, 6-Methyl-4-[8-(4-morpholin-4-ylphenylamino)-imidazo[1,2-a]pyrazin-5-yl]-1H-pyridin-2-one] gave an IC50 on MAPKAPK5 above 1000 nM. For the same compound, the EC50 in the assay with MMP1 expression by SFs is 101 to 500 nM.

In the case of `NC(=O)CN1CCC(c2ccc(Nc3ncc(-c4cn[nH]c4)n4ccnc34)cc2)CC1` [Compound 224, 2-(4-{4-[5-(1H-Pyrazol-4-yl)imidazo[1,2-a]pyrazin-8-ylamino]phenyl}piperidin-1-yl)acetamide], the IC50 against MAPKAPK5 was 501 to 1000 nM. The concentration giving a half-maximal response (EC50) in the assay with MMP1 expression by SFs is above 1000 nM.

In the case of `CCN(CC)CCNC(=O)c1ccc(Nc2ncc(-c3ccnn3C)n3ccnc23)cc1` [Compound 88], on MAPKAPK5, the IC50 was above 1000 nM. The EC50 in the assay on MMP1 expression by SFs was above 1000 nM.

Turning to `Cc1cn2c(-c3cn[nH]c3)cnc(Nc3ccc(C(N)=O)cc3)c2n1` [Compound 92], the IC50 against MAPKAPK5 was above 1000 nM. The EC50 in the assay on MMP1 expression by SFs is above 1000 nM.

In the case of `CC(C)N1CCN(c2ccc(Nc3ncc(-c4ccc5c(c4)C(C)(C)NC5=O)n4ccnc34)cc2)CC1` [Compound 227], at MAPKAPK5, the 50% inhibitory concentration (IC50) was above 1000 nM. Also, in the assay on MMP1 expression by SFs, the 50% effective concentration (EC50) was above 1000 nM.

Regarding `NC(=O)c1ccc(Nc2ncc(-c3ccc(C(=O)O)cc3)n3ccnc23)cc1` [Compound 52], the IC50 on MAPKAPK5 is above 1000 nM. Besides, in the assay on MMP1 expression by SFs, the concentration for a half-maximal effect (EC50) is above 1000 nM.

At MAPKAPK5, `CCN(CCO)c1ccc(Nc2ncc(-c3cccc(C(N)=O)c3)n3ccnc23)cc1` [Compound 2] gave an IC50 above 1000 nM. Further, the 50% effective concentration (EC50) with MMP1 expression by SFs is above 1000 nM.

As to `COc1cc(Nc2ncc(-c3csc(C(N)=O)c3)n3ccnc23)ccc1C(=O)NCc1ccc(C)nc1` [Compound 190, 4-(8-{3-Methoxy-4-[(6-methylpyridin-3-ylmethyl)carbamoyl]phenylamino}imidazo[1,2-a]pyrazin-5-yl)thiophene-2-carboxylic acid amide], the concentration for half-maximal inhibition (IC50) against MAPKAPK5 is above 1000 nM. Also, in the assay with MMP1 expression by SFs, the concentration giving a half-maximal response (EC50) lay within 101 to 500 nM.

Compound `NC(=O)CN1CCC(c2ccc(Nc3ncc(-c4ccc5c(c4)CNC5=O)n4ccnc34)cc2)CC1` [Compound 226, 2-(4-{4-[5-(1-Oxo-2,3-dihydro-1H-isoindol-5-yl)-imidazo[1,2-a]pyrazin-8-ylamino]-phenyl}piperidin-1-yl)acetamide] registered an IC50 on MAPKAPK5 of 101 to 500 nM. Also, in the assay on MMP1 expression by SFs, the EC50 is above 1000 nM.

Source of the values: US8178530B2, “Imidazolopyrazine compounds useful for the treatment of degenerative and inflammatory diseases” (Janssen Pharmaceutica NV, priority 2006, dated 2012).
